Assay results taken from US6953578B2, “Materials and methods for detection and treatment of immune system dysfunctions” (University of Florida Research Foundation, Inc., priority 1996, dated 2005).
Marks after values point to notes of the source that are not given here.

Experiments:
monocytes [1] = experiment: TNFα and IL-1β in supernatants of monocytes cultured 24 hours; format: cell-based, human; details: monocytes cultured in vitro 24 hours
Protocol: The expression of PGS-2 can be induced by several factors including cytokines produced by monocytes such as TNFα and IL-1β. To evaluate the possibility that monocytes of pre-IDD subjects produce large quantities of IL-1 and TNFα which induces PGS-2, the levels of these cytokines were measured in supernatants of monocytes cultured in vitro for 24 hours from pre-IDD and healthy controls. […] The lower levels of these cytokines is consistent with the constitutive production of prostaglandins which suppress the production of both TNFα and IL-1β.

PGS-2 mRNA = PGS-2 mRNA expression in monocytes by RT-PCR; format: cell-based, human
Protocol: RT-PCR detection of PGS-2 mRNA in human monocytes. Human peripheral blood is collected in sterile green top 10 ml tubes. Assays are preferably performed with 5 ml or more of blood. The blood is then centrifuged on a ficoll gradient for 30 minutes at 1500 rpm. Monocytes are isolated to >80% purity by adherence for 2 hours to a plastic culture surface. Cells are then cultured overnight in RMPI-1640 plus endotoxin-free fetal calf sera. The cells are harvested after 16 hours of culture by cold Ca^++/Mg^++-free PBS, the cells are counted, and viability is assessed. Monocytes cultured in 10 μg/ml LPS serve as a positive control for each sample tested. The poly mRNA is then harvested from a standard 10^5 monocytes using a kit (Quiagen). The mRNA is then reverse transcribed in a standard reaction mixture. The cDNA is then amplified by PGS-2-specific primers designed by our laboratory using a standard […] for 45 cycles. The PCR product is then run out on agarose gels with known standards and the size confirmed. β-actin is used as an internal control in these reactions. The identity of RT-PCR products were confirmed by size and Southern blotting using a PGS-2-specific labeled internal probe.
Monocytes were examined from ICA+ humans with a high risk of developing IDD, individuals with established SLE and autoimmune thyroid disease, and healthy controls. A portion of the pre-diabetic ICA+ individuals examined are enrolled in an IDD trial where they receive daily subcutaneous insulin as a preventative therapy. Monocytes of humans without autoimmune disease infrequently express PGS-2 mRNA (12%), whereas monocytes from subjects who are at high risk for the development of IDD express PGS-2 at a highly significant frequency (84%, p<0.0001).

monocytes [2] = experiment: PGE2 production by monocytes, specific ELISA; format: cell-based, human
Description: In addition to the expression of PGS-2, the production of PGE2 by monocytes from these same control and autoimmune individuals was examined.

NOD mice [3] = experiment: Incidence of diabetes in NOD mice treated through drinking water; format: in vivo, mouse
Protocol: Blocking the activity of PGS-2 with drugs that reduce PG production can be used to prevent or slow the development of IDD disease. When NOD mice with established, active autoimmune disease are treated through their drinking water with a combination of drugs, including a PGS-1/PGS-2 inhibitor, low dose indomethacin (3 μg/ml), in conjunction with an inducible nitric oxide synthase (iNOS) inhibitor, aminoguanidine, which potentiates the effects of indomethacin, the incidence of diabetes in NOD mice drops by 42% in comparison to control animals and animals treated with either low dose indomethacin or aminoguanidine alone.
Treatment of NOD mice at a time when autoimmunity is in its final stages with high doses (15 μg/ml) of indomethacin alone reduces the incidence of diabetes from 77% to 22%.

monocytes [4] = experiment: Monokine production in monocyte culture supernatants with and without NS-398; format: cell-based, human; details: monocytes of healthy controls and pre-diabetic population
Description: The monocyte production of the monokines IL-1β, TNFα, IL-1RA, and IL-10 in culture supernatants from healthy controls and the pre-diabetic population in the presence and absence of the PGS-2-specific inhibitor, NS-398, have been evaluated. […] It has also been determined that, despite enhanced levels of PGS-2 and PGE2 in diabetic and pre-diabetic individuals, there is no corresponding increase in IL-10. […] Therefore, a further aspect of the subject invention is a method for detecting evidence of autoimmune disease, particularly diabetes, which comprises evaluating monocytes to determine if those monocytes have a reduced response to IL-10 with regard to PGS-2 expression. Such reduced response would be evidence of disease. In accordance with these findings, compounds that inhibit prostaglandin production can be used to modulate the production of anti-inflammatory monokines in order to limit the immune response. The spontaneous expression of PGS-2 and the production of PGE2 by pre-diabetic monocytes may influence their function, limiting their ability to produce monokines that would have a potent effect on limiting the autoimmune response to the β-cells of the islet and therefore would promote the progression to diabetes.

NOD mice [5] = experiment: PGE2 production by monocytes of NOD mice after IL-10 administration; format: in vivo, mouse; details: administration of IL-10

With insulin the “TNFα and IL-1β levels, insulin-treated versus untreated pre-IDD” value (monocytes [1]) was “no significant differences”, the “% PGS-2 +” value (PGS-2 mRNA; ICA+ pre-IDD subjects, insulin-treated, Table 6) was 73.6** % and the “% Positive (PGS-2 mRNA)” value (PGS-2 mRNA; ICA+ subjects on daily subcutaneous preventative insulin, Table 2) was 71%. The “PGS-2 mRNA or protein expression” value (PGS-2 mRNA; preventative insulin therapy in ICA+ subjects) was “does not appear to affect” and the PGE2 (monocytes [2]; monocytes of ICA+/PGS-2+ subjects on insulin therapy) was 5805 ± 1544 pg/mL.

In the case of COc1ccc2c(c1)c(CC(=O)O)c(C)n2C(=O)c1ccc(Cl)cc1 [indomethacin], the “development of IDD” value (NOD mice [3]; NOD mice treated at an early stage of disease) is reported as “effectively blocks the development of IDD” and the incidence of diabetes (NOD mice [3]; NOD mice, autoimmunity in final stages, indomethacin alone 15 μg/ml, untreated 77%) is reported as 22%.

In the case of CS(=O)(=O)Nc1ccc([N+](=O)[O-])cc1OC1CCCCC1 [NS-398], the “production of IL-1RA” value (monocytes [4]) is reported as “promotes the production”, the “production of IL-10” value (monocytes [4]) is reported as “promotes the production” and the “production of PGE2” value (monocytes [2]; monocytes of control and autoimmune individuals, FIG. 1) is reported as “completely blocked”. For the same molecule, the “PGS-2 production in vitro” value (monocytes [2]; monocytes of individuals at high risk for IDD) was “effectively blocks all PGS-2 production”.

B1: IL-10: monokine that tends to downregulate inflammation and immune responses (protein, UniProt P22301 19-178, looked up)
Interleukin-10: SPGQGTQSENSCTHFPGNLPNMLRDLRDAFSRVKTFFQMKDQLDNLLLKESLLEDFKGYLGCQALSEMIQFYLEEVMPQAENQDPDIKAHVNSLGENLKTLRLRLRRCHRFLPCENKSKAVEQVKNAFNKLQEKGIYKAMSEFDIFINYIEAYMTMKIRN
For B1, the “PGE2 production by monocytes” value (NOD mice [5]) was “does not inhibit PGE2 production”.
